Patent publication US8748569B2, “Peptide amphiphiles and methods to electrostatically control bioactivity of the ikvav peptide epitope” (Northwestern University, priority 2011, dated 2014)
Peptide text beside a SMILES is read from it. * marks the point of attachment. Palmitoyl = CCCCCCCCCCCCCCCC(=O)*

Columns and labels:
[1] = Small-angle X-ray scattering (SAXS) of PA nanostructures; format: physicochemical; conditions: for Total SAXS Cross-section dimensions: diameter
Text: Small-angle X-ray scattering (SAXS) measurements were obtained using a Rigaku S-MAX 3000 High Brilliance SAXS System. Cu Ka radiation was generated by Osmic MicroMaxs, an integrated microfocus sealed tube generator (powered at 45 kV and 0.9 mA) with Osmict Confocal Max-Fluxs optics, 3 pinholes collimation. A 20×20 cm^2 2D position-sensitive wire detector (1024×1024 pixels) was positioned 150 cm behind the examined samples, resulting in a q-range of 0.07-2.8 nm^−1. The wave vector defined as, q=(4π/λ)sin(2θ/2), where 2y is the scattering angle and λ is wavelength of Cu Kα radiation (1.542 Å). A total of 10^6 or more counts were collected in order to obtain a high signal to noise ratio. Samples were measured for 3600 s, and then background subtracted from data collected using a capillary containing the isotonic salt solution. The 2D SAXS patterns were azimuthally averaged and the background subtracted using standard methods. Data analysis was based on fitting the scattering curve to an appropriate model by a least-squares method using software provided by NIST (NIST SANS analysis version 7.0 on IGOR) ^21 The table below lists the models used to fit the SAXS curves. The Total SAXS cross-sectional dimensions correspond to length and width for molecule 2, and diameter for 3-5.

Dynamic light scattering = format: physicochemical
[2] = tested on: P19 embryonal carcinoma cells differentiated into neurons; assay: Neurite outgrowth of neurons cultured in peptide amphiphile gels; format: cell-based, murine; conditions: compared to gels of PA 1; for promotion of neurite outgrowth (in words): gels containing 0.2 wt % of the PA with 0.8 wt % PA 1
Experimental: P19 embryonal carcinoma cells were cultured in media composed of α-MEM (Gibco), 7.5% newborn calf serum (Lonza), 2.5% fetal bovine serum (Gibco), penicillin (100 units/ml) and streptomycin (100 ug/ml) (Invitrogen). Neuronal differentiation was induced by plating P19 cells in non-treated Petri dishes in media containing 5 uM retinoic acid (Sigma) for 4 days. Neurospheres were collected from the Petri dish and allowed to settle in a centrifuge tube for 10 minutes. Media was removed, then trypsin/EDTA solution was added and the tube was gently agitated for 5 minutes. Cells were dissociated by triturating the neurospheres, then media was added to inactivate the trypsin. Cells were centrifuged and the pellet resuspended in media to a concentration of 25,000 cells/ul. Cells were mixed (1:4) with PA solution. The PA/cell solution was pipetted into coverslip-bottom culture dishes (MatTek) and covered with gelling solution (150 mM NaCl, 3 mM KCl, 25 mM CaCl2) for 1 minute to induce gelation, then rinsed with a 150 mM NaCl, 3 mM KCl solution, then media was added to the dish. Cells were cultured for 2 days.
In order to assay neurite outgrowth, gels were rinsed with PBS, then fixed in 4% paraformaldehyde for 30 minutes at room temperature. Gels were rinsed 3× with PBS followed by addition of 10% normal goat serum blocking solution (Invitrogen) with 0.1% Triton X-100 added. Gels were incubated overnight with primary antibody (rabbit anti-β-III-tubulin IgG, 1/2000, Covance) in blocking solution. Gels were rinsed 3× with PBS, then blocked for 30 minutes with blocking solution. Next, gels were incubated with secondary antibody (Alexa Fluor 488 goat anti-rabbit IgG, 1/100, Invitrogen) in blocking solution for 1 hour. After one PBS rinse, nuclei were stained with a 5 ug/ml solution of Hoecsht 34580 (Invitrogen) in PBS for 15 minutes, then rinsed 4 times. Gels were imaged on a Zeiss LSM 510 META laser scanning confocal microscope, individually acquiring z-stacks of randomly chosen cells with neurites. Two gels were imaged per condition for each experiment. Experiments were done in triplicate. For each condition, at least 50 neurons with neurites were imaged. Using the Simple Neurite Tracer plug-in for ImageJ software, neurites were traced and measured. A one-way ANOVA, followed by paired t-tests, were performed to determine significance between conditions. Researchers were blinded to the conditions during imaging and tracing.
Pluripotent murine P19 embryonal carcinoma cells were differentiated into neurons. These neurons were then homogeneously distributed into isotonic salt solutions composed of 0.8 wt % PA 1 mixed with 0.2 wt % 2-5 and gelled with 25 mM CaCl2 (FIG. 3a,b). Mixtures of 1 with 2-5 were used in biological experiments in order to form robust gel matrices capable of supporting cells in culture. After two days of culture, the cells were fixed and the neurites and nuclei were fluorescently labelled green and blue using β-III-tubulin immunostaining and Hoechst staining, respectively, then imaged by confocal microscopy (FIG. 14). Neurites were traced and measured, and average neurite lengths were calculated (FIG. 15).

[3] = tested on: P19 embryonal carcinoma cells differentiated into neurons; assay: as above; format: cell-based, murine; conditions: gels containing half the concentration (0.1 wt %) of the PA; compared to gels of PA 1
Circular dichroism (CD) = format: physicochemical
Experimental: CD was done using a model J-715 Jasco Circular Dichroism Spectrometer. 1 wt % PA solutions were prepared in either a 150 mM NaCl, 3 mM KCl solution or a 150 mM NaCl, 3 mM KCl, and 5 mM CaCl2 solution, both at a pH of 7.2-7.4, as determined via pH paper. The solutions were then heated to 80° C. in a water bath for 1 hr, and then slowly cooled to room temperature over the course of 8 hr. The samples were measured through 0.01 mm quartz plates. Each trace represents the average of three scans. The mean residue ellipticity was corrected for purity of the lyophilized powder from peptide content analysis.

[4] = Transmission electron microscopy (cryoTEM / conventional TEM) of PA nanostructures; format: physicochemical
Experimental: The nanostructure of each PA molecule under physiologically relevant conditions was investigated using electron microscopy. Samples for vitreous ice cryo-transmission electron microscopy (cryoTEM) were prepared from a 0.1-0.5 wt % PA solution dissolved in 150 mM NaCl, 3 mM KCl, or in a 150 mM NaCl, 3 mM KCl, and 5 mM CaCl2 solution, both at a pH of 7.2-7.4. The solutions were then heated to 80° C. in a water bath for 1 hr, and then slowly cooled to room temperature over the course of 8 hr. 10 μL of each solution was pipetted onto a plasma cleaned holey carbon TEM grid (Electron Microscopy Sciences), blotted and plunged into liquid ethane using a FEI Vitrobot Mark IV. Samples were kept at −180° C. and imaged using a JEOL 1230 TEM operating at 100 kV.
Samples for conventional TEM microscopy were prepared from 0.1 wt % PA solution dissolved in ultrapure water and adjusted to a pH of 7.2-7.4 by adding NaOH. The solutions were then heated to 80° C. in a water bath for 1 hr, and then slowly cooled to room temperature over the course of 8 hr, unless noted otherwise. 2 μL of a 0.1 wt % PA solution was pipetted onto a Carbon Formvar grid (Electron Microscopy Sciences) and allowed to dry. The samples were then negatively stained by pipetting 2 uL of a 2 wt % Uranyl acetate solution and allowed to dry. Each sample was imaged using a JEOL 1230 TEM operating at 100 kV. The average diameter of nanofibers was obtained via measuring 40-100 different fibers from solutions and grids prepared throughout multiple days.
The assembly of each PA molecule under physiologically relevant conditions was examined using cryogenic electron microscopy (cryoTEM), as described in Example 4. PAs were dissolved in isotonic salt solutions resembling extracellular fluid (150 mM NaCl, 3 mM KCl, pH 7.4). […] In order to compare molecular simulation diameters with those observed from TEM, molecular simulation values for the other four PA molecules were scaled by the same amount, 87%.

[5] = as above; format: physicochemical; conditions: 1 wt % solution drop-cast and dried onto a TEM grid
[6] = Solubility in physiologically relevant monovalent salt solution; format: physicochemical; conditions: monovalent salt solution composed of 150 mM NaCl and 3 mM KCl
[7] = (Core) Shell Cylinder SAXS model

CCCCCCCCCCCCCCCC(=O)N[C@H](C(=O)N[C@H](C(=O)N[C@@H](C)C(=O)N[C@@H](C)C(=O)N[C@@H](CCC(=O)O)C(=O)N[C@@H](CCC(=O)O)C(=O)N[C@@H](CCC(=O)O)C(=O)N[C@@H](CCC(=O)O)C(=O)NCC(=O)N[C@H](C(=O)N[C@@H](CCCCN)C(=O)N[C@H](C(=O)N[C@@H](C)C(=O)N[C@H](C(=O)O)C(C)C)C(C)C)[C@@H](C)CC)C(C)C)C(C)C [PA 5, CH3(CH2)14C(O)-VVAAEEEEGIKVAV-OH] (Palmitoyl-VVAAEEEEGIKVAV-OH)
Core Diameter [1, 7]: 1.2 nm
Shell Thickness [1, 7]: 2.0 ± 0.6 nm
Total SAXS Cross-section dimensions [1, 7]: 6.4 ± 1.8 nm
Core Diameter ([1]; (Core) Shell Sphere SAXS model): 1.46 nm
Shell Thickness ([1]; (Core) Shell Sphere SAXS model): 1.4 ± 0.6 nm
Total SAXS Cross-section dimensions ([1]; (Core) Shell Sphere SAXS model): 5.9±1.2 nm
Total SAXS Cross-section dimensions ([1]; (Core) Shell Sphere SAXS model, listed as 5): 5.9±1.2 nm
hydrodynamic radius of spherical micelles (Dynamic light scattering): 8.6 nm
promotion of neurite outgrowth (in words) [2]: promoted neurite outgrowth
promotion of neurite outgrowth (in words) ([2]; listed as SEQ ID NO. 7): promote neurite outgrowth
increase in neurite outgrowth ([2]; gels of 0.8 wt % PA 1 mixed with 0.2 wt % of the PA, gelled with 25 mM CaCl2, 2 days culture): 88±13%
increase in neurite length [3]: 57±14%
peptide secondary structure from CD spectrum (Circular dichroism (CD); 150 mM NaCl, 3 mM KCl with 5 mM CaCl2 added): presence of β-sheet structure
peptide secondary structure from CD spectrum (Circular dichroism (CD); 1 wt % in 150 mM NaCl, 3 mM KCl): random coil peptide structure
diameter of cylindrical structures ([4]; cryoTEM, isotonic salt solution with 5 mM CaCl2 added): 9.9±1.1 nm
diameter of spherical micelles ([4]; cryoTEM, without CaCl2): 5.3±1.1 nm
OBSERVED FIBER DIAMETER ([4]; from TEM): 108 ± 15 Å
ASSEMBLED MORPHOLOGY ([4]; observed morphologies from TEM): Cylindrical fiber
average diameter of cylindrical nanofibers [5]: 10.8±1.5 nm
solubility [6]: soluble
